# In ChEMBL document CHEMBL3885881, “DrugMatrix”:
# Species on record: Rattus norvegicus
# Assay: DrugMatrix - Regimen: Daily Repeat
# Format: toxicity, organism-based, Sprague-Dawley
# Set-up: regimen Daily Repeat, gender Male, age 6-8 weeks
# Conditions: in vivo, po, 430 mg/kg, route oral GAVAGE, dose level High, vehicle .5 % CMC; for ABSOLUTE BASOPHIL / ABSOLUTE EOSINOPHIL / ABSOLUTE LYMPHOCYTE / ABSOLUTE MONOCYTE / ABSOLUTE SEGMENTED NEUTROPHIL / BASOPHIL / EOSINOPHIL / ERYTHROCYTE COUNT / HEMATOCRIT / HEMOGLOBIN / LEUKOCYTE COUNT / LYMPHOCYTE / MEAN CORPUSCULAR HEMOGLOBIN / MEAN CORPUSCULAR HEMOGLOBIN CONCENTRATION / MEAN CORPUSCULAR VOLUME / MONOCYTE / NEUTROPHIL / NUCLEATED RED BLOOD CELLS / PLATELET COUNT: tissue Blood; for ALANINE AMINOTRANSFERASE / ALBUMIN / ALKALINE PHOSPHATASE / ASPARTATE AMINOTRANSFERASE / BLOOD UREA NITROGEN / CARBON DIOXIDE / CHLORIDE / CHOLESTEROL / CREATININE / GLUCOSE / LACTATE DEHYDROGENASE / LIPASE / PHOSPHORUS / POTASSIUM / SODIUM / TOTAL BILIRUBIN / TOTAL PROTEIN / URIC ACID: tissue Plasma
structure (smiles),measurement,setting,value
ClC(Cl)Br [BROMODICHLOROMETHANE],ABSOLUTE BASOPHIL,"72 h, time 3 day",0 CELLS/uL
same,ABSOLUTE EOSINOPHIL,"72 h, time 3 day",216.67 CELLS/uL
same,ABSOLUTE LYMPHOCYTE,"72 h, time 3 day",11508.33 CELLS/uL
same,ABSOLUTE MONOCYTE,"72 h, time 3 day",948.33 CELLS/uL
same,ABSOLUTE SEGMENTED NEUTROPHIL,"72 h, time 3 day",1326.67 CELLS/uL
same,BASOPHIL,"72 h, time 3 day",0%
same,EOSINOPHIL,"72 h, time 3 day",1.33%
same,ERYTHROCYTE COUNT,"72 h, time 3 day",6.13 x10E6/uL
same,HEMATOCRIT,"72 h, time 3 day",37.07%
same,HEMOGLOBIN,"72 h, time 3 day",13.87 G/DL
same,LEUKOCYTE COUNT,"72 h, time 3 day",14 x10E3/uL
same,LYMPHOCYTE,"72 h, time 3 day",82.33%
same,MEAN CORPUSCULAR HEMOGLOBIN,"72 h, time 3 day",22.63 pg
same,MEAN CORPUSCULAR HEMOGLOBIN CONCENTRATION,"72 h, time 3 day",37.4 G/DL
same,MEAN CORPUSCULAR VOLUME,"72 h, time 3 day",60.47 fL
same,MONOCYTE,"72 h, time 3 day",6.67%
same,NEUTROPHIL,"72 h, time 3 day",9.67%
same,NUCLEATED RED BLOOD CELLS,"72 h, time 3 day",0 /100WBC
same,PLATELET COUNT,"72 h, time 3 day",1186 x10E3/uL
same,ALANINE AMINOTRANSFERASE,"72 h, time 3 day",73.33 u/L
same,ALBUMIN,"72 h, time 3 day",4.57 G/DL
same,ALKALINE PHOSPHATASE,"72 h, time 3 day",459.67 u/L
same,ASPARTATE AMINOTRANSFERASE,"72 h, time 3 day",106 u/L
same,BLOOD UREA NITROGEN,"72 h, time 3 day",18.67 mg/dL
same,CARBON DIOXIDE,"72 h, time 3 day",23 mmol/L
same,CHLORIDE,"72 h, time 3 day",104.67 MEQ/L
same,CHOLESTEROL,"72 h, time 3 day",72 mg/dL
same,CREATININE,"72 h, time 3 day",0.22 mg/dL
same,GLUCOSE,"72 h, time 3 day",124.33 mg/dL
same,LACTATE DEHYDROGENASE,"72 h, time 3 day",655 u/L
same,LIPASE,"72 h, time 3 day",9 u/L
same,PHOSPHORUS,"72 h, time 3 day",12.47 mg/dL
same,POTASSIUM,"72 h, time 3 day",6.06 MEQ/L
same,SODIUM,"72 h, time 3 day",141.67 MEQ/L
same,TOTAL BILIRUBIN,"72 h, time 3 day",0.27 mg/dL
same,TOTAL PROTEIN,"72 h, time 3 day",5.93 G/DL
same,URIC ACID,"72 h, time 3 day",1.9 mg/dL
same,ABSOLUTE BASOPHIL,"120 h, time 5 day",0 CELLS/uL
same,ABSOLUTE EOSINOPHIL,"120 h, time 5 day",20 CELLS/uL
same,ABSOLUTE LYMPHOCYTE,"120 h, time 5 day",7894 CELLS/uL
same,ABSOLUTE MONOCYTE,"120 h, time 5 day",268.67 CELLS/uL
same,ABSOLUTE SEGMENTED NEUTROPHIL,"120 h, time 5 day",750.67 CELLS/uL
same,BASOPHIL,"120 h, time 5 day",0%
same,EOSINOPHIL,"120 h, time 5 day",0.33%
same,ERYTHROCYTE COUNT,"120 h, time 5 day",6.18 x10E6/uL
same,HEMATOCRIT,"120 h, time 5 day",35.9%
same,HEMOGLOBIN,"120 h, time 5 day",13 G/DL
same,LEUKOCYTE COUNT,"120 h, time 5 day",8.93 x10E3/uL
same,LYMPHOCYTE,"120 h, time 5 day",88.67%
same,MEAN CORPUSCULAR HEMOGLOBIN,"120 h, time 5 day",21.07 pg
same,MEAN CORPUSCULAR HEMOGLOBIN CONCENTRATION,"120 h, time 5 day",36.23 G/DL
same,MEAN CORPUSCULAR VOLUME,"120 h, time 5 day",58.1 fL
same,MONOCYTE,"120 h, time 5 day",2.67%
same,NEUTROPHIL,"120 h, time 5 day",8.33%
same,NUCLEATED RED BLOOD CELLS,"120 h, time 5 day",0 /100WBC
same,PLATELET COUNT,"120 h, time 5 day",970.33 x10E3/uL
same,ALANINE AMINOTRANSFERASE,"120 h, time 5 day",85 u/L
same,ALBUMIN,"120 h, time 5 day",4.6 G/DL
same,ALKALINE PHOSPHATASE,"120 h, time 5 day",399.33 u/L
same,ASPARTATE AMINOTRANSFERASE,"120 h, time 5 day",105 u/L
same,BLOOD UREA NITROGEN,"120 h, time 5 day",12.67 mg/dL
same,CARBON DIOXIDE,"120 h, time 5 day",33.67 mmol/L
same,CHLORIDE,"120 h, time 5 day",103.67 MEQ/L
same,CHOLESTEROL,"120 h, time 5 day",63.33 mg/dL
same,CREATININE,"120 h, time 5 day",0.21 mg/dL
same,GLUCOSE,"120 h, time 5 day",116 mg/dL
same,LACTATE DEHYDROGENASE,"120 h, time 5 day",107.67 u/L
same,LIPASE,"120 h, time 5 day",9.33 u/L
same,PHOSPHORUS,"120 h, time 5 day",10.87 mg/dL
same,POTASSIUM,"120 h, time 5 day",5.17 MEQ/L
same,SODIUM,"120 h, time 5 day",146.4 MEQ/L
same,TOTAL BILIRUBIN,"120 h, time 5 day",0.23 mg/dL
same,TOTAL PROTEIN,"120 h, time 5 day",6.17 G/DL
same,URIC ACID,"120 h, time 5 day",0.8 mg/dL
same,ABSOLUTE BASOPHIL,"[…], time 14 day",0 CELLS/uL
same,ABSOLUTE EOSINOPHIL,"[…], time 14 day",120.4 CELLS/uL
same,ABSOLUTE LYMPHOCYTE,"[…], time 14 day",11064.6 CELLS/uL
same,ABSOLUTE MONOCYTE,"[…], time 14 day",372 CELLS/uL
same,ABSOLUTE SEGMENTED NEUTROPHIL,"[…], time 14 day",2303 CELLS/uL
same,BASOPHIL,"[…], time 14 day",0%
same,EOSINOPHIL,"[…], time 14 day",0.8%
same,ERYTHROCYTE COUNT,"[…], time 14 day",6.18 x10E6/uL
same,HEMATOCRIT,"[…], time 14 day",34.92%
same,HEMOGLOBIN,"[…], time 14 day",12.94 G/DL
same,LEUKOCYTE COUNT,"[…], time 14 day",13.86 x10E3/uL
same,LYMPHOCYTE,"[…], time 14 day",80.8%
same,MEAN CORPUSCULAR HEMOGLOBIN,"[…], time 14 day",20.96 pg
same,MEAN CORPUSCULAR HEMOGLOBIN CONCENTRATION,"[…], time 14 day",37.08 G/DL
same,MEAN CORPUSCULAR VOLUME,"[…], time 14 day",56.58 fL
same,MONOCYTE,"[…], time 14 day",2.6%
same,NEUTROPHIL,"[…], time 14 day",15.8%
same,NUCLEATED RED BLOOD CELLS,"[…], time 14 day",0 /100WBC
same,PLATELET COUNT,"[…], time 14 day",862.2 x10E3/uL
same,ALANINE AMINOTRANSFERASE,"[…], time 14 day",65.6 u/L
same,ALBUMIN,"[…], time 14 day",4.56 G/DL
same,ALKALINE PHOSPHATASE,"[…], time 14 day",422.2 u/L
same,ASPARTATE AMINOTRANSFERASE,"[…], time 14 day",104.6 u/L
same,BLOOD UREA NITROGEN,"[…], time 14 day",19.6 mg/dL
same,CARBON DIOXIDE,"[…], time 14 day",25.8 mmol/L
same,CHLORIDE,"[…], time 14 day",106.8 MEQ/L
same,CHOLESTEROL,"[…], time 14 day",71.4 mg/dL
same,CREATININE,"[…], time 14 day",0.25 mg/dL
same,GLUCOSE,"[…], time 14 day",140.6 mg/dL
same,LACTATE DEHYDROGENASE,"[…], time 14 day",190 u/L
same,LIPASE,"[…], time 14 day",9.2 u/L
same,PHOSPHORUS,"[…], time 14 day",10.96 mg/dL
same,POTASSIUM,"[…], time 14 day",5.79 MEQ/L
same,SODIUM,"[…], time 14 day",145.9 MEQ/L
same,TOTAL BILIRUBIN,"[…], time 14 day",0.16 mg/dL
same,TOTAL PROTEIN,"[…], time 14 day",6.14 G/DL
same,URIC ACID,"[…], time 14 day",1.44 mg/dL
